# Measurements reported in patent publication US9440957B2, “Compounds and compositions for modulating EGFR Activity” (Novartis AG, priority 2012, dated 2016).
# Read-outs that look alike come from different tables or passages of the source.
# How the values were obtained:
# [1] = target: H3255 (EGFR L858R) (Homo sapiens, UniProt P00533, L858R); experiment: EGFR target modulation in H3255 cell line (phospho-EGFR Y1173 ELISA); assay type: cell-based
# Procedure, shortened: (§1)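 Phospho-EGFR Y1173 levels were measured by chemiluminescent capture ELISA in lysates of cells exposed to compound for 3 hours at 37 °C. Inhibition was normalised to EGF-stimulated control cells taken as maximal response, and IC50 values were obtained by non-linear curve fitting.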
# [2] = target: human EGFR L858R (NIH/3T3 cells) (Homo sapiens, UniProt P00533, L858R); experiment: EGFR target modulation in engineered NIH/3T3 cell lines (phospho-EGFR Y1068 AlphaLISA), EGFR L858R; assay type: cell-based; conditions: engineered NIH/3T3 cells, read-out: NIH3T3 IC50 (μM) EGFR (L858R)
# Procedure, shortened: (§2)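 Engineered NIH/3T3 cells expressing EGFR variants treated 3 h at 37 °C with 12-point 1:3 compound series (top stock 10 μM); only WT cells stimulated with 50 ng/ml EGF for 5 min before lysis. Phospho-Y1068 measured by AlphaLISA with total-EGFR antibody; IC50 from non-linear fitting.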
# [3] = target: human EGFR WT (NIH/3T3 cells, EGF-induced) (Homo sapiens, UniProt P00533); experiment: EGFR target modulation in engineered NIH/3T3 cell lines (phospho-EGFR Y1068 AlphaLISA), EGFR WT; assay type: cell-based; conditions: engineered NIH/3T3 cells, read-out: NIH3T3 IC50 (μM) EGFR (WT)
# Procedure, shortened: as §2
# [4] = target: H1975 (EGFR L858/T790M) (Homo sapiens, UniProt P00533, L858R/T790M); experiment: EGFR target modulation in H1975 cell line (phospho-EGFR Y1173 ELISA); assay type: cell-based
# Procedure, shortened: as §1
# [5] = target: human EGFR L858R/T790M (NIH/3T3 cells) (Homo sapiens, UniProt P00533, L858R/T790M); experiment: EGFR target modulation in engineered NIH/3T3 cell lines (phospho-EGFR Y1068 AlphaLISA), EGFR L858R/T790M; assay type: cell-based; conditions: engineered NIH/3T3 cells, read-out: NIH3T3 IC50 (μM) EGFR (L858R/T790M)
# Procedure, shortened: as §2
# [6] = target: HEKn (EGFR WT) (Homo sapiens, UniProt P00533); experiment: EGFR target modulation in HEKn (EGFR-WT) cell line (phospho-EGFR Y1173 ELISA); assay type: cell-based; conditions: value outside parentheses
# Procedure, shortened: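 Primary neonatal human keratinocytes (EGFR WT) were exposed to serially diluted compounds for 3 h, then lysed on ice. Phospho-EGFR Y1173 was measured by chemiluminescent sandwich ELISA using anti-EGFR capture.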
# [7] = target: T1, EGFR(L858R/T790M) (Homo sapiens, UniProt P00533, L858R/T790M); experiment: EGFR biochemical assay (HTRF), IC50 determinations
# T1 construct: purchased from Carna (GST-a.a. 669-1210)
# Procedure, shortened: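 HTRF kinase reaction with biotin-TK peptide at room temperature, quenched with EDTA at 60 min and detected with PT66K/SAXL after 1 h. Without preincubation, enzyme starts the reaction with compound, ATP and peptide present. With preincubation, compound, enzyme and peptide sit at room temperature for a set time before ATP is added.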
# [8] = EGFR (L858R/T790M) with 90 min pre-incubation, read-out: IC50 (μM) Column B
# [9] = EGFR (L858R/T790M) with no pre-incubation, read-out: IC50 (μM) Column A
# Chain of human EGFR L858R (NIH/3T3 cells) (P00533 25-1210 L858R): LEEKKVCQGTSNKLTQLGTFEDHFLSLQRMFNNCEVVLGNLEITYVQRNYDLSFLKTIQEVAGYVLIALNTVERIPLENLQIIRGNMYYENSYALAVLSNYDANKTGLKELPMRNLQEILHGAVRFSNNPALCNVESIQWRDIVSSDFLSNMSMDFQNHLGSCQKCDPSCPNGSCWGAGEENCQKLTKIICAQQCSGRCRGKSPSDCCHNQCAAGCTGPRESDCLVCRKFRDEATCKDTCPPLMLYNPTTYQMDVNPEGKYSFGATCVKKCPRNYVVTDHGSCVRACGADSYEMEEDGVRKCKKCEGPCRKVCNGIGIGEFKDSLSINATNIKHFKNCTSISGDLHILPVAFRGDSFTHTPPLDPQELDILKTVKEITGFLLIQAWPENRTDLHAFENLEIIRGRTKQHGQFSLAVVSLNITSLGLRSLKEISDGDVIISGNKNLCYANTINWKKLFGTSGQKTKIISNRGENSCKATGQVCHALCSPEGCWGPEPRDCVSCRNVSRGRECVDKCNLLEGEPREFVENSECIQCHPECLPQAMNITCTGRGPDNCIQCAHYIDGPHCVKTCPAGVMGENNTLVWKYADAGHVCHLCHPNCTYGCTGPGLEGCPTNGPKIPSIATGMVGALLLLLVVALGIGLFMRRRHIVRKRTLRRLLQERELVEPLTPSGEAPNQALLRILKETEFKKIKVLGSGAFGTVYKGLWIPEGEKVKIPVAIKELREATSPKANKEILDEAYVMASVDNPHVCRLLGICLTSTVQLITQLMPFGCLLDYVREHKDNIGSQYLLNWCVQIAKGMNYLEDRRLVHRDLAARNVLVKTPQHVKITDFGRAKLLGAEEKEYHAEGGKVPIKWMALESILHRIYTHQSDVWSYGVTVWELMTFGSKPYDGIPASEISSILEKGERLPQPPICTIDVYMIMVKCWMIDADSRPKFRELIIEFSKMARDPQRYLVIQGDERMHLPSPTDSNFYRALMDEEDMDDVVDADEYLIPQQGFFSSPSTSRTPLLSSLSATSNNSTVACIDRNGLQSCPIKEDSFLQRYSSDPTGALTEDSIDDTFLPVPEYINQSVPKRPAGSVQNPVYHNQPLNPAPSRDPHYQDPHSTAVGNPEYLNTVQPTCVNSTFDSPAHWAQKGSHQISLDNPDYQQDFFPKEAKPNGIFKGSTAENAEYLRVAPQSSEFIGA
# Chain of H3255 (EGFR L858R) (P00533 25-1210 L858R): as above
# T1 sequence (P00533 669-1210 T790M/L858R): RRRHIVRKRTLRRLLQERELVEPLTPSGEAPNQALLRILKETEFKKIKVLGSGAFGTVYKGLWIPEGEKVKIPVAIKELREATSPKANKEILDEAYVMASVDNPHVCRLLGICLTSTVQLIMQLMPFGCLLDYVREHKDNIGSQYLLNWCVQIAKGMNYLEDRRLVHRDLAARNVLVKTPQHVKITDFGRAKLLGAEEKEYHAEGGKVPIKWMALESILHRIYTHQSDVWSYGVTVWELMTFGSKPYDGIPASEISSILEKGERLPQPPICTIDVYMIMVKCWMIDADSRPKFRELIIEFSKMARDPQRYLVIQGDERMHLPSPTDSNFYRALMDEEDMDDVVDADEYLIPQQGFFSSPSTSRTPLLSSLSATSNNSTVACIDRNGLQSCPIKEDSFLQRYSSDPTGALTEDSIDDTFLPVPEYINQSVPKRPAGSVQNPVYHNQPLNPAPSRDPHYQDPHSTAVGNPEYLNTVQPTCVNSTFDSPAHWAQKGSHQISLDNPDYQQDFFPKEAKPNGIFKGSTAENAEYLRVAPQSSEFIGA
# Chain of HEKn (EGFR WT) (P00533 25-1210): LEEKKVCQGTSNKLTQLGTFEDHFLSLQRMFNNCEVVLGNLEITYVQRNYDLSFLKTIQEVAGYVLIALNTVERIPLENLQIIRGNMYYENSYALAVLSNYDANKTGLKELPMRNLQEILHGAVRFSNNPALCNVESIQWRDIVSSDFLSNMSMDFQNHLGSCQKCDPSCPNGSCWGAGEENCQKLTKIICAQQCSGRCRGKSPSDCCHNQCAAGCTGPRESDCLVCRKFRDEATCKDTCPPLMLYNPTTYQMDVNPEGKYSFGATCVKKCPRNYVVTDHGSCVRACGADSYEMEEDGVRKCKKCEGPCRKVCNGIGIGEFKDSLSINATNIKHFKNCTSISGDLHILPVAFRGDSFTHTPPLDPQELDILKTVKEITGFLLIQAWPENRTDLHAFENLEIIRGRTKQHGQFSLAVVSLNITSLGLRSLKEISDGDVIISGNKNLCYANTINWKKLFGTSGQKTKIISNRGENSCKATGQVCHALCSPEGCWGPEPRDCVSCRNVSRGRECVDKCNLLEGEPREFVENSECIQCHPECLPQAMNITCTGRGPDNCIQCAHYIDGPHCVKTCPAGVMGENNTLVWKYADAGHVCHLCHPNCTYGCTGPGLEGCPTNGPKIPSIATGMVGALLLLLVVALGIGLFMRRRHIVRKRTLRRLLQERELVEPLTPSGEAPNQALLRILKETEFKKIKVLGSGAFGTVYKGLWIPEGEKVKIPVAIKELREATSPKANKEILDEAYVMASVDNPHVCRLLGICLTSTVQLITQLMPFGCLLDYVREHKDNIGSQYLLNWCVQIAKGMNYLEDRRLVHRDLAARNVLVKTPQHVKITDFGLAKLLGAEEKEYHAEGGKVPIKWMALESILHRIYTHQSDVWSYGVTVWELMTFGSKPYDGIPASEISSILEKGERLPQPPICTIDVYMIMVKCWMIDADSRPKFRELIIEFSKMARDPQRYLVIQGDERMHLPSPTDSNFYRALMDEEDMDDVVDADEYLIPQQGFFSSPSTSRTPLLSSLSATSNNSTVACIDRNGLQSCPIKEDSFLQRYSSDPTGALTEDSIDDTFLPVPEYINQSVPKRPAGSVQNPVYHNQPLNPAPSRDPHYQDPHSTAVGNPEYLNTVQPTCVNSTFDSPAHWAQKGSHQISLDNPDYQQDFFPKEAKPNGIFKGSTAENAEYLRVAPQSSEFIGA
Structure (SMILES),IC50 [1] [µM],IC50 [2] [µM],IC50 [3] [µM],IC50 [4] [µM],IC50 [5] [µM],IC50 [6] [µM],"IC50 [7, 8] [µM]","IC50 [7, 9] [µM]"
Cc1cccc2nc(NC(=O)c3cnc(Cl)c(Cl)c3)n([C@@H]3CCCCN(C(=O)/C=C/CN(C)C)C3)c12 [Example 17-78],0.037,0.005,0.152,0.134,0.006,1.68,< 0.001,0.006
COc1cncc(C(=O)Nc2nc3cccc(C)c3n2[C@@H]2CCCCN(C(=O)/C=C/CN(C)C)C2)c1 [Example 17-79],0.007,0.005,0.062,0.002,0.002,0.176,< 0.001,0.005
Cc1ccccc1-c1cc(C(=O)Nc2nc3cccc(C)c3n2[C@@H]2CCCCN(C(=O)/C=C/CN(C)C)C2)ccn1 [Example 17-80],< 0.001,< 0.001,0.002,< 0.001,< 0.001,0.004,< 0.001,< 0.001
C=CC(=O)N1CCCC[C@@H](n2c(NC(=O)c3cnnc(C)c3)nc3cccc(C)c32)C1 [Example 17-81],0.004,0.003,0.067,0.002,0.002,0.162,< 0.001,0.002
Cc1cc(C(=O)Nc2nc3cccc(C)c3n2[C@@H]2CCCCN(C(=O)/C=C/CN(C)C)C2)cnn1 [Example 17-82],0.029,0.007,0.187,0.01,0.007,0.37,< 0.001,0.007
COc1cccc2nc(NC(=O)c3ccnnc3)n([C@@H]3CCCCN(C(=O)/C=C/CN(C)C)C3)c12 [Example 17-83],0.072,0.022,0.6,0.029,0.027,2.33,0.001,0.02
C=CC(=O)N1CCCC[C@@H](n2c(NC(=O)c3ccnnc3)nc3cccc(OC)c32)C1 [Example 17-84],0.137,0.04,1.94,0.037,0.028,1.66,0.003,0.049
CC(C)Oc1cccc2nc(NC(=O)c3ccnnc3)n([C@@H]3CCCCN(C(=O)/C=C/CN(C)C)C3)c12 [Example 17-85],0.111,0.043,0.6,0.038,0.02,2.08,0.003,0.038
C=CC(=O)N1CCCC[C@@H](n2c(NC(=O)c3ccnnc3)nc3cccc(OC(C)C)c32)C1 [Example 17-86],0.057,0.03,0.45,0.012,0.008,0.71,0.004,0.04
Cc1cccc2nc(NC(=O)c3ccnnc3)n([C@@H]3CCCCN(C(=O)C#CCN(C)C)C3)c12 [Example 17-87],< 0.001,< 0.001,0.013,0.002,< 0.001,0.037,< 0.001,< 0.001
C=CC(=O)N1CCCC[C@@H](n2c(NC(=O)c3ccnnc3)nc3cccc(C)c32)C1 [Example 17-94],0.002,0.001,0.031,0.001,< 0.001,0.045,< 0.001,0.002
Cc1cccc2nc(NC(=O)c3ccnnc3)n([C@@H]3CCCCN(C(=O)/C=C/CN(C)C)C3)c12 [Example 17-95],0.003,0.002,0.026,0.003,0.002,0.127,< 0.001,0.002
C=CC(=O)N1CCC[C@@H](n2c(NC(=O)c3ccccc3)nc3cccc(C)c32)C1 [Example 17-108],0.044,0.306,> 10,0.014,0.021,> 10,0.005,0.048
C=CC(=O)N1CCC[C@@H](n2c(NC(=O)c3ccnc(C)c3)nc3cccc(C)c32)C1 [Example 17-109],0.043,0.032,0.88,0.014,0.028,1.68,< 0.001,0.025
C=CC(=O)N1CCCC[C@@H](n2c(NC(=O)c3ccccc3)nc3cc(CN4CCCC4)cc(C)c32)C1 [Example 17-111],0.008,0.003,0.047,< 0.001,0.001,0.203,< 0.001,0.004
C=CC(=O)N1CCCC[C@@H](n2c(NC(=O)c3ccccc3)nc3cccc(CN4CCC(O)C4)c32)C1 (stereo partly shown) [Example 17-114],0.004,0.002,0.143,< 0.001,< 0.001,0.1,< 0.001,0.001
C=CC(=O)N1CCC[C@@H](n2c(NC(=O)c3cccc(C(F)(F)F)c3)nc3cc(CN4CCCCC4)ccc32)C1 [Example 17-118],> 10,0.156,> 10,0.64,0.005,> 10,0.005,0.68
C=CC(=O)N1CCC[C@@H](n2c(NC(=O)c3cccc(C(F)(F)F)c3)nc3cc(COCCOC)ccc32)C1 [Example 17-124],0.49,0.271,> 10,0.022,0.023,> 10,0.008,0.2
C=CC(=O)N1CCCC[C@@H](n2c(NC(=O)c3ccccc3)nc3cccc(CN(C)C)c32)C1 [Example 17-129],0.004,0.002,0.045,0.001,0.002,0.028,< 0.001,0.002
C=CC(=O)N1CCCC[C@@H](n2c(NC(=O)c3ccccc3)nc3cccc(CN4CCS(=O)(=O)CC4)c32)C1 [Example 17-132],0.108,0.047,2.87,0.009,0.012,2.85,0.001,0.041
Cc1noc(-c2cccc3nc(NC(=O)c4ccccc4)n(C4COCCN(C(=O)/C=C/CN(C)C)C4)c23)n1 (stereo not shown) [Example 17-142],0.64,0.34,5.2,0.105,0.09,> 10,0.01,0.32
C=CC(=O)N1CCCC[C@@H](n2c(NC(=O)c3cnnc(C)c3)nc3cc(CN4CCCC4)cc(C)c32)C1 [Example 17-161],0.009,0.006,0.281,0.008,0.009,0.269,< 0.001,0.008
"C=CC(=O)N1CCC[C@@H](n2c(NC(=O)c3cccc(C(F)(F)F)c3)nc3cc(C(N)=O)ccc32)C1 [Example 19, (R)-1-(1-acryloylpiperidin-3-yl)-2-(3-(trifluoromethyl)benzamido)-1H-benzo[d]imidazole-5-carboxamide]",2.02,0.226,> 10,0.168,0.026,> 10,0.01,0.218
